From patent publication US20260166150A1, “CRYSTAL FORM OF NK3R ANTAGONIST, AND PREPARATION METHOD THEREFOR AND USE THEREOF” (CHANGCHUN GENESCIENCE PHARMACEUTICAL CO., LTD., priority 2022, published 2026)
pIC50: −log10 of the molar value.

Columns and labels:
human NK-3 receptor = target: T1, human NK-3 receptor (Homo sapiens, UniProt P29371); assay: Antagonistic activity on human NK-3 receptor, FLIPR calcium assay in stably transfected human NK-3R/HEK293 cells; assay type: cell-based
T1 construct: expressed in transfected cells; host or cells: HEK293 (stably transfected human NK-3R/HEK293)
T1 sequence (P29371 1-465): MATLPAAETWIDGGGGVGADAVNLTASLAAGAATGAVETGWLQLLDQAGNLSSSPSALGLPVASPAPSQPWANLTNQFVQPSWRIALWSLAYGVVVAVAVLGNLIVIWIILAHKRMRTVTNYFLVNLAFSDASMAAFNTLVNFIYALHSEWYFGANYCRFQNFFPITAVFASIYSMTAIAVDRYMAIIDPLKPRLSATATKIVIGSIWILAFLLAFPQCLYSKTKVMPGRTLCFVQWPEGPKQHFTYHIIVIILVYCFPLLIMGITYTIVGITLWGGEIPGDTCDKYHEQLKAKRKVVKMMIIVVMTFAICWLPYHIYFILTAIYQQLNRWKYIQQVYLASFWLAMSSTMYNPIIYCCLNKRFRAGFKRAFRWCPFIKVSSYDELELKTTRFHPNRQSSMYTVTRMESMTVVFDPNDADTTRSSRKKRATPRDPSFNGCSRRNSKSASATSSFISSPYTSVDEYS

[1] = DVS hygroscopicity test at 25° C.; assay type: physicochemical
Experimental: • DVS curve is collected on DVS Intrinsic of SMS (Surface Measurement Systems) Relative humidity at 25° C. is calibrated based on deliquescent points of LiCl, Mg(NO3)2, and KCl. • Temperature: 25° C.; • Sample amount: 10-20 mg; • Protecting gas and flow rate: N2, 200 mL/min; • dm/dt: 0.002%/min; • Minimum dm/dt equilibration time: 10 min; • Maximum equilibration time: 180 min; • RH range: 0% RH-95% RH-0% RH; • RH gradient: 10% RH (0% RH-90% RH & 90% RH-0% RH); 5% RH (90% RH-95% RH & 95% RH-90% RH)

[2] = Solid-state stability evaluation (open storage, XRPD and HPLC); assay type: physicochemical
Experimental: Waters H-Class ultra performance liquid chromatograph is used to collect solubility and purity data of the items.
An appropriate amount of sample was weighed, kept open at 60° C. for 1 day, as well as kept open at 25° C./60% RH and kept open at 40° C./75% RH for 1 week and 4 weeks respectively. Then, the sample was characterized by XRPD and HPLC to detect changes in the crystal form and chemical purity.

NK-3 receptor antagonism (in words) (human NK-3 receptor; conclusion from IC50 data)	pIC50 (human NK-3 receptor; human NK-3R/HEK293 cells, agonist Neurokinin B, FLIPR)	moisture adsorption ([1]; 25° C./80% RH, DVS)	hygroscopicity (in words) ([1]; DVS, 25° C.)	crystal form before and after DVS testing (XRPD) ([1]; XRPD before and after DVS)	HPLC Relative purity % ([2]; 25° C./60% RH, 1 week, open)	HPLC purity Area % ([2]; 25° C./60% RH, 1 week, open)	HPLC Relative purity % ([2]; 25° C./60% RH, 4 weeks, open)	HPLC purity Area % ([2]; 25° C./60% RH, 4 weeks, open)	HPLC Relative purity % ([2]; 40° C./75% RH, 1 week, open)	HPLC purity Area % ([2]; 40° C./75% RH, 1 week, open)	HPLC Relative purity % ([2]; 40° C./75% RH, 4 weeks, open)	HPLC purity Area % ([2]; 40° C./75% RH, 4 weeks, open)	change of purity after storage ([2]; 60° C. 1 day, 25° C./60% RH and 40° C./75% RH, 1 week and 4 weeks, open)	HPLC Relative purity % ([2]; 60° C., 1 day, open)	HPLC purity Area % ([2]; 60° C., 1 day, open)	physicochemical stability (in words) ([2]; all evaluated storage conditions)	SMILES
potent NK-3 receptor antagonist	7.92	–	–	–	–	–	–	–	–	–	–	–	–	–	–	–	Cc1nsc(-c2nc(N3CCCC3=O)c3n2CCN(C(=O)c2ccc(F)cc2)[C@@H]3C)n1 [Compound represented by formula (I), (R)-1-(7-(4-fluorobenzoyl)-8-methyl-3-(3-methyl-1,2,4-thiadiazol-5-yl)-5,6,7,8-tetrahydroimidazo[1,5-a]pyrazin-1-yl)pyrrolidin-2-one]
–	–	about 0.15%	almost non-hygroscopic	did not change in the crystal form	99.9%	99.48%	99.9%	99.45%	99.9%	99.49%	99.9%	99.49%	< 0.2 %, area %	99.9%	99.49%	good physicochemical stability	Cc1nsc(-c2nc(N3CCCC3=O)c3n2CCN(C(=O)c2ccc(F)cc2)[C@@H]3C)n1 [Crystal form A of free base, (R)-1-(7-(4-fluorobenzoyl)-8-methyl-3-(3-methyl-1,2,4-thiadiazol-5-yl)-5,6,7,8-tetrahydroimidazo[1,5-a]pyrazin-1-yl)pyrrolidin-2-one]
